Structures can show the parent of a compound that is named as a salt.
What follows are compounds tested against T1, human αVβ6 (Homo sapiens, UniProt P06756+P18564) (assay: human αVβ6 HTRF binding assay). Conditions: recombinant human αVβ6 integrin, FITC-conjugated fibronectin.
T1 construct: purchased R & D systems 3817-AV
Method in brief: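 HTRF binding in 20 mM Tris pH 7.4 with 1 mM MgCl2, 1 mM MnCl2, 0.01% Tween 20 and 0.01% BSA. For αVβ6, biotinylated integrin (1.25 nM) and FITC-fibronectin (5 nM) were incubated 1 h at RT, then streptavidin-terbium (0.625 nM) was added overnight in the dark. An SPA-based fibronectin binding format was an alternative.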

T1 sequence (P06756 31-992 limits assumed): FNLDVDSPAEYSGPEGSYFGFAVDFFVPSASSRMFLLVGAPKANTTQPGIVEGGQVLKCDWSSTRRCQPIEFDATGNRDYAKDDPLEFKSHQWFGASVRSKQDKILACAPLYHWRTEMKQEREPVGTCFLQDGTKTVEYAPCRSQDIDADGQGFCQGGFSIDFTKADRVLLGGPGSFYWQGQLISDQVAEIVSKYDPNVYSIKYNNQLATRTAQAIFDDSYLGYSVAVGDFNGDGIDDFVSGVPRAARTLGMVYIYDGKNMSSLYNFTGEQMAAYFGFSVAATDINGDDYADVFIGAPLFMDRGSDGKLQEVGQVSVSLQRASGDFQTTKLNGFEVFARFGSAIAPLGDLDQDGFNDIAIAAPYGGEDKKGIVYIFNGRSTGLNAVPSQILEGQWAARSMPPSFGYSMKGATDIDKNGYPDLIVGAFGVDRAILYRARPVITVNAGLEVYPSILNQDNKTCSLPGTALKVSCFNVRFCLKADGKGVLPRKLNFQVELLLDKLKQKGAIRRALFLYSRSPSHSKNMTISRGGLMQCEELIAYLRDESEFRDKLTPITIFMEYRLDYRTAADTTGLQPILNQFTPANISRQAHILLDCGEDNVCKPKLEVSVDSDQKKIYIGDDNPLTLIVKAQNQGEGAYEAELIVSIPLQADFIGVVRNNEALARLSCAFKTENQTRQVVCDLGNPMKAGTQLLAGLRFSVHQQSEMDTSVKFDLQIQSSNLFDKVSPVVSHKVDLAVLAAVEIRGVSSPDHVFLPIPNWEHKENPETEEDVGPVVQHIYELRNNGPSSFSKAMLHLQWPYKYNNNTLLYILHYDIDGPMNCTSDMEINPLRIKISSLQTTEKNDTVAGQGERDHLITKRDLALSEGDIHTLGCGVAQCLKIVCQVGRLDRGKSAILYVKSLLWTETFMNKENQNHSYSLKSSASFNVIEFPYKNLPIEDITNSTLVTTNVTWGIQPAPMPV
T1 sequence (P18564 22-707 limits assumed): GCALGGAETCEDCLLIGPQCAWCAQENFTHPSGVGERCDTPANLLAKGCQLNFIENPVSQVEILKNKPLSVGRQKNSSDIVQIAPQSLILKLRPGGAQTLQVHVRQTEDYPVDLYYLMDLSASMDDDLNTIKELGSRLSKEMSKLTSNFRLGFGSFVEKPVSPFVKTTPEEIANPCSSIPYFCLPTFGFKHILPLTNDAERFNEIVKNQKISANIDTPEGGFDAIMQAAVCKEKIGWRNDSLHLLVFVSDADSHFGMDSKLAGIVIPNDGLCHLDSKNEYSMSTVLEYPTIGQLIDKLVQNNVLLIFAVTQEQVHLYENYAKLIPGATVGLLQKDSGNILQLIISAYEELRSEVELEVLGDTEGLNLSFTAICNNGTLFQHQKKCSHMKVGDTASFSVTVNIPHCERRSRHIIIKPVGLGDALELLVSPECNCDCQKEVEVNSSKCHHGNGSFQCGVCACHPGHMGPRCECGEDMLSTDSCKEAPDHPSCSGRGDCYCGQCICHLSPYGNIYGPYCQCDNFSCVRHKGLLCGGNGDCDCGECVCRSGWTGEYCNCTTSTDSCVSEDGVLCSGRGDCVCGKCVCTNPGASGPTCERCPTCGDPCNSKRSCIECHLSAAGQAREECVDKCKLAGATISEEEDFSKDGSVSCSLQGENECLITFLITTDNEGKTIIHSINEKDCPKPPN

Compound | IC50
COc1ncc(C(CC(=O)O)n2ncc3cc(OCCc4ccc5c(n4)NCCC5)ccc32)cc1C1OCCO1 (centres unmarked) [Example 133, 3-(5-(1,3-Dioxolan-2-yl)-6-methoxypyridin-3-yl)-3-(5-(2-(5,6,7,8-tetrahydro-1,8-naphthyridin-2-yl)ethoxy)-1H-indazol-1-yl)propanoic acid] | 0.4 µM
O=C(O)CC(c1ccc2c(n1)NCCO2)n1ncc2cc(OCCc3ccc4c(n3)NCCC4)ccc21 (centres unmarked) [Example 91, 3-(3,4-Dihydro-2H-pyrido[3,2-b][1,4]oxazin-6-yl)-3-(5-(2-(5,6,7,8-tetrahydro-1,8-naphthyridin-2-yl)ethoxy)-1H-indazol-1-yl)propanoic acid, 2 TFA] | 0.031 µM
CN(C)C(=O)c1cncc(C(CC(=O)O)n2ncc3cc(OCCc4ccc5c(n4)NCCC5)ccc32)c1 (centres unmarked) [Example 153, 3-(5-(dimethylcarbamoyl)pyridin-3-yl)-3-(5-(2-(5,6,7,8-tetrahydro-1,8-naphthyridin-2-yl)ethoxy)-1H-indazol-1-yl)propanoic acid] | 0.017 µM
Cc1nc2cc(C(CC(=O)O)n3ncc4cc(OCCc5ccc6c(n5)NCCC6)ccc43)ccc2s1 (centres unmarked) [Example 56, 3-(2-Methylbenzo[d]thiazol-5-yl)-3-(5-(2-(5,6,7,8-tetrahydro-1,8-naphthyridin-2-yl)ethoxy)-1H-indazol-1-yl)propanoic acid, TFA] | 0.0041 µM
CN1CCN(c2cncc(C(CC(=O)O)n3ncc4cc(OCCc5ccc6c(n5)NCCC6)ccc43)c2)CC1 (centres unmarked) [Example 156, 3-(5-(4-methylpiperazin-1-yl)pyridin-3-yl)-3-(5-(2-(5,6,7,8-tetrahydro-1,8-naphthyridin-2-yl)ethoxy)-1H-indazol-1-yl)propanoic acid] | 0.0088 µM
COc1ccc([C@H](CC(=O)O)n2ncc3cc(OCCc4ccc5c(n4)NCCO5)ccc32)cn1 [Example 180, (S)-3-(5-(2-(3,4-dihydro-2H-pyrido[3,2-b][1,4]oxazin-6-yl)ethoxy)-1H-indazol-1-yl)-3-(6-methoxypyridin-3-yl)propanoic acid] | 0.015 µM
CCCn1cc(C(CC(=O)O)n2ncc3cc(OCCc4ccc5c(n4)NCCC5)ccc32)cn1 (centres unmarked) [Example 63, 3-(1-Propylpyrazol-4-yl)-3-(5-(2-(5,6,7,8-tetrahydro-1,8-naphthyridin-2-yl)ethoxy)-1H-indazol-1-yl)propanoic acid, TFA] | 0.055 µM
Cc1ncc([C@H](CC(=O)O)n2ncc3cc(OCCc4ccc5c(n4)N[C@@H](C)CC5)ccc32)cn1 (single isomer, unassigned) [Example 178] | 0.11 µM
CCOc1ncc([C@@H](CC(=O)O)n2ncc3cc(OCCc4ccc5c(n4)NCCC5)ccc32)cn1 [Example 108, (R)-3-(2-Ethoxypyrimidin-5-yl)-3-(5-(2-(5,6,7,8-tetrahydro-1,8-naphthyridin-2-yl)ethoxy)-1H-indazol-1-yl) propanoic acid, TFA] | 0.39 µM
CCCCCC(CC(=O)O)n1ncc2cc(OCCc3ccc4c(n3)NCCC4)ccc21 (centres unmarked) [Example 46, 3-(5-(2-(5,6,7,8-Tetrahydro-1,8-naphthyridin-2-yl)ethoxy)-1H-indazol-1-yl)octanoic acid, TFA] | 0.33 µM
O=C(O)C[C@@H](c1cccc(N2CCCC2=O)c1)n1ncc2cc(OCCc3ccc4c(n3)NCCC4)ccc21 [Example 84, (S)-3-(3-(2-Oxopyrrolidin-1-yl)phenyl)-3-(5-(2-(5,6,7,8-tetrahydro-1,8-naphthyridin-2-yl)ethoxy)-1H-indazol-1-yl)propanoic acid, TFA] | 0.12 µM
Cc1ncc([C@@H](CC(=O)O)n2ncc3cc(OCCc4ccc5c(n4)N[C@H](C)CC5)ccc32)cn1 (single isomer, unassigned) [Example 175] | 6 µM
O=C(O)CC(c1ccc2nccnc2c1)n1ncc2cc(OCCc3ccc4c(n3)NCCC4)ccc21 (centres unmarked) [Example 80, 3-(Quinoxalin-6-yl)-3-(5-(2-(5,6,7,8-tetrahydro-1,8-naphthyridin-2-yl)ethoxy)-1H-indazol-1-yl)propanoic acid, TFA] | 0.013 µM
CC(C)(O)c1cncc([C@H](CC(=O)O)n2ncc3cc(OCCc4ccc5c(n4)NCCC5)ccc32)c1 [Example 146, (S)-3-(5-(2-hydroxypropan-2-yl)pyridin-3-yl)-3-(5-(2-(5,6,7,8-tetrahydro-1,8-naphthyridin-2-yl)ethoxy)-1H-indazol-1-yl)propanoic acid] | 0.0052 µM
O=C(O)CC(c1ccc2c(c1)oc1ccccc12)n1ncc2c(OCCc3ccc4c(n3)NCCC4)cccc21 (centres unmarked) [Example 30, 3-(Dibenzo[b,d]furan-3-yl)-3-(4-(2-(5,6,7,8-tetrahydro-1,8-naphthyridin-2-yl)ethoxy)-1H-indazol-1-yl)propanoic acid] | 1.2 µM
Cn1cnc2cc(C(CC(=O)O)n3ncc4cc(OCCc5ccc6c(n5)NCCC6)ccc43)cnc21 (centres unmarked) [Example 126, 3-(3-Methyl-3H-imidazo[4,5-b]pyridin-6-yl)-3-(5-(2-(5,6,7,8-tetrahydro-1,8-naphthyridin-2-yl)ethoxy)-1H-indazol-1-yl)propanoic acid, 2 TFA] | 0.021 µM

Compound | IC50
COc1ccc(C(CC(=O)O)n2ncc3cc(CCCc4ccc5c(n4)NCCC5)ccc32)cn1 (centres unmarked) [Example 20, 3-(6-Methoxypyridin-3-yl)-3-(5-(3-(5,6,7,8-tetrahydro-1,8-naphthyridin-2-yl)propyl)-1H-indazol-1-yl)propanoic acid] | 0.07 µM
O=C(O)CC(c1ccc(Oc2ccccc2)cc1)n1ncc2cc(OCCc3ccc4c(n3)NCCC4)ccc21 (centres unmarked) [Example 57, 3-(4-Phenoxyphenyl)-3-(5-(2-(5,6,7,8-tetrahydro-1,8-naphthyridin-2-yl)ethoxy)-1H-indazol-1-yl)propanoic acid, TFA] | 0.011 µM
Cc1ncc([C@H](CC(=O)O)n2ncc3cc(OCCc4ccc5c(n4)NCCC5)ccc32)cn1 [Example 159, (S)-3-(2-methylpyrimidin-5-yl)-3-(5-(2-(5,6,7,8-tetrahydro-1,8-naphthyridin-2-yl)ethoxy)-1H-indazol-1-yl)propanoic acid] | 0.047 µM
O=C(O)CC(c1cncc(-n2cccn2)c1)n1ncc2cc(OCCc3ccc4c(n3)NCCC4)ccc21 (centres unmarked) [Example 161, 3-(5-(1H-pyrazol-1-yl)pyridin-3-yl)-3-(5-(2-(5,6,7,8-tetrahydro-1,8-naphthyridin-2-yl)ethoxy)-1H-indazol-1-yl)propanoic acid] | 0.0055 µM
O=C(O)CC(c1cnc2ccccc2n1)n1ncc2cc(CCc3ccc4c(n3)NCCC4)ccc21 (centres unmarked) [Example 27, 3-(Quinoxalin-2-yl)-3-(5-(2-(5,6,7,8-tetrahydro-1,8-naphthyridin-2-yl)ethyl)-1H-indazol-1-yl)propanoic acid] | 0.24 µM
O=C(O)C[C@H](c1cnc2ccccc2n1)n1ncc2cc(OCCc3ccc4c(n3)NCCC4)ccc21 [Example 16, (R)-3-(Quinoxalin-2-yl)-3-(5-(2-(5,6,7,8-tetrahydro-1,8-naphthyridin-2-yl)ethoxy)-1H-indazol-1-yl)propanoic acid] | 0.137 µM
O=C(O)C[C@H](c1cnc2nccnc2c1)n1ncc2cc(OCCc3ccc4c(n3)NCCC4)ccc21 [Example 128, (R)-3-(Pyrido[2,3-b]pyrazin-7-yl)-3-(5-(2-(5,6,7,8-tetrahydro-1,8-naphthyridin-2-yl)ethoxy)-1H-indazol-1-yl)propanoic acid] | 0.025 µM
Cc1ncc([C@H](CC(=O)O)n2ncc3cc(OCCc4ccc5c(n4)N[C@H](C)CC5)ccc32)cn1 (single isomer, unassigned) [Example 176] | 0.033 µM
O=C(O)CC(C1CCCCC1)n1ncc2cc(OCCc3ccc4c(n3)NCCC4)ccc21 (centres unmarked) [Example 164, 3-cyclohexyl-3-(5-(2-(5,6,7,8-tetrahydro-1,8-naphthyridin-2-yl)ethoxy)-1H-indazol-1-yl)propanoic acid] | 3.2 µM
O=C(NC(Cn1ncc2c(OCCc3ccc4c(n3)NCCC4)cccc21)C(=O)O)OCc1ccccc1 (centres unmarked) [Example 39, 2-(((Benzyloxy)carbonyl)amino)-3-(4-(2-(5,6,7,8-tetrahydro-1,8-naphthyridin-2-yl)ethoxy)-1H-indazol-1-yl)propanoic acid] | 0.34 µM
CS(=O)(=O)c1cncc([C@@H](CC(=O)O)n2ncc3cc(OCCc4ccc5c(n4)NCCC5)ccc32)c1 [Example 165, (R)-3-(5-(methylsulfonyl)pyridin-3-yl)-3-(5-(2-(5,6,7,8-tetrahydro-1,8-naphthyridin-2-yl)ethoxy)-1H-indazol-1-yl)propanoic acid] | 0.54 µM
COc1cnc(C(CC(=O)O)n2ncc3cc(OCCc4ccc5c(n4)NCCC5)ccc32)cn1 (centres unmarked) [Example 79, 3-(5-Methoxypyrazin-2-yl)-3-(5-(2-(5,6,7,8-tetrahydro-1,8-naphthyridin-2-yl)ethoxy)-1H-indazol-1-yl)propanoic acid, TFA] | 0.033 µM
Cn1cc2ncc(C(CC(=O)O)n3ncc4cc(OCCc5ccc6c(n5)NCCC6)ccc43)cc2n1 (centres unmarked) [Example 136, 3-(2-Methyl-2H-pyrazolo[4,3-b]pyridin-6-yl)-3-(5-(2-(5,6,7,8-tetrahydro-1,8-naphthyridin-2-yl)ethoxy)-1H-indazol-1-yl)propanoic acid] | 0.041 µM
O=C(O)CC(c1cncc(C(=O)N2CCOCC2)c1)n1ncc2cc(OCCc3ccc4c(n3)NCCC4)ccc21 (centres unmarked) [Example 152, 3-(5-(morpholine-4-carbonyl)pyridin-3-yl)-3-(5-(2-(5,6,7,8-tetrahydro-1,8-naphthyridin-2-yl)ethoxy)-1H-indazol-1-yl)propanoic acid] | 0.022 µM
COc1ccc(C(CC(=O)O)n2ncc3c(CCc4ccc5c(n4)NCCC5)cccc32)cn1 (centres unmarked) [Example 174, 3-(6-Methoxypyridin-3-yl)-3-(4-(2-(5,6,7,8-tetrahydro-1,8-naphthyridin-2-yl)ethyl)-1H-indazol-1-yl)propanoic acid] | 0.54 µM
Cc1cc(C)c(S(=O)(=O)NC(Cn2ncc3cc(OCCc4ccc5c(n4)NCCC5)ccc32)C(=O)O)c(C)c1 (centres unmarked) [Example 13, 3-(5-(2-(5,6,7,8-Tetrahydro-1,8-naphthyridin-2-yl)ethoxy)-1H-indazol-1-yl)-2-((2,4,6-trimethylphenyl)sulfonamido)propanoic acid] | 0.32 µM

Reference: patent US10745384B2, “Indazole derivatives as αv integrin antagonists” (BRISTOL-MYERS SQUIBB COMPANY, priority 2016, dated 2020)
